Reference: publication PMC4684357, “Comparative Evaluation of the Antimicrobial Activity of Different Antimicrobial Peptides against a Range of Pathogenic Bacteria” (PLoS ONE, 2015)
Like-named read-outs stand apart in the source and are kept apart here. Residues, ends and D or L forms follow the SMILES beside them. No end group written: not given here.

Legend:
proteinase K = target: T1, proteinase K (Parengyodontium album, UniProt P06873); assay: Protease stability: MIC after incubation with proteinase K; type: in vitro ADME; conditions: for Antimicrobial Activity MIC: proteinase K, protease:AMP 1:100 (w/w), 100 mM Tris-HCl pH 7.5, 37°C, test strain E. coli ATCC25922, triplicates
T1 construct: purchased NEB P8107S
Protocol: (§1) The minimum inhibitory concentrations (MICs) of the AMPs were measured in 96-well microtiter plates according to the Clinical and Laboratory Standards Institute (CLSI, formerly National Committee for Clinical Laboratory Standards [NCCLS]). Briefly, liquid Mueller-Hinton-II medium containing increasing concentrations of AMPs is inoculated with a defined number of cells (approx. 10^5 CFUs/ml) in 96-well microtiter plates (polypropylene), whereas each plate also includes a positive growth control and a negative control (sterile control). After incubation, the MIC is determined by the lowest concentration showing no visible growth. All plates were incubated for 18–20 hours, except the F. psychrophilum plates which were incubated for 72 hours.
(§2) AMPs were heated at 70°C or 90° for 5, 15 or 30 minutes. An untreated control, which was kept at RT, was used as a control. After incubation at 70°C or 90°C, the minimum inhibitory concentrations (MICs) of the peptides were measured in 96-well microtiter plates according the Clinical and Laboratory Standards Institute (CLSI, formerly National Committee for Clinical Laboratory Standards [NCCLS]) […] After incubation, the samples were cooked for 10 minutes at 90°C to inactivate the protease. Afterwards, the antimicrobial activity was determined by measuring the minimal inhibitory concentration (see Antimicrobial susceptibility testing)). E. coli ATCC25922 was used as a test strain.

trypsin = target: T2, trypsin (Bos taurus, UniProt P00760); assay: Protease stability: MIC after incubation with trypsin; type: in vitro ADME; conditions: for Antimicrobial Activity MIC: trypsin, protease:AMP 1:100 (w/w), trypsin-ultra reaction buffer, 37°C, test strain E. coli ATCC25922, triplicates
T2 construct: purchased NEB P8101
T2 sequence (P00760 24-246): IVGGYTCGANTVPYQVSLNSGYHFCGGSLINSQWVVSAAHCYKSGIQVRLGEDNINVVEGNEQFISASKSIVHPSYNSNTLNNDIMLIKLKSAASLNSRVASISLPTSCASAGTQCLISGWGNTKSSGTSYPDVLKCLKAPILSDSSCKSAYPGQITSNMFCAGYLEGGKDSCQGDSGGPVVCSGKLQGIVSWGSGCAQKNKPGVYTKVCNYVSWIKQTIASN
Protocol: as §1, §2

E. coli ATCC25922 [1] = type: cell-based, Escherichia coli
From the text: (§3) The Yersinia ruckeri strain was kindly provided by Prof. Kurt Buchmann, University of Copenhagen, Faculty of Health and Medical Sciences, and the Flavobacterium psychrophilum strain was kindly provided by Prof. Inger Dalsgaard, DTU, Denmark. BW25113 is the Escherichia coli wild-type strain, a derivative of the F^-,λ^- E. coli K12 strain BD792 which was used in generating the KEIO collection. E. coli ATCC25922 is a clinical isolate, serotype O6 and is often used as control strain in antimicrobial susceptibility testing. All strains were grown in Mueller-Hinton-II medium, except L. monocytogenes which was grown in BHI medium and F. psychrophilum which was grown in TYES medium (Tryptone yeast extract plus salts). Incubation took place aerobically at 37°C, except for Y. ruckeri and A. salmonicida, which were grown aerobically at RT (20°C), C. jejuni NCTC11168 which was grown under microaerophilic conditions at 42°C and F. psychrophilum 1947 which was grown under aerobic conditions at 15°C. All plates were incubated for 18–20 hours, except the F. psychrophilum plates, which were incubated for 72 hours.
All plates were incubated for 18–20 hours, except the F. psychrophilum plates which were incubated for 72 hours.
All the MIC measurements were carried out in duplicate.

BW25113 wild-type = assay: MIC in LPS backgrounds; type: cell-based, Escherichia coli; conditions: E. coli BW25113 wild-type; CLSI; triplicates
From the text: as §3, §1

BW25113 ΔrfaC = type: cell-based, Escherichia coli; conditions: E. coli BW25113 ΔrfaC; CLSI; triplicates
From the text: as §3, §1

BW25113 ΔrfaE = type: cell-based, Escherichia coli; conditions: E. coli BW25113 ΔrfaE; CLSI; triplicates
From the text: as §3, §1

BW25113 ΔrfaF = type: cell-based, Escherichia coli; conditions: E. coli BW25113 ΔrfaF; CLSI; triplicates
From the text: as §3, §1

BW25113 ΔrfaG = type: cell-based, Escherichia coli; conditions: E. coli BW25113 ΔrfaG; CLSI; triplicates
From the text: as §3, §1

ATCC25922 ΔrfaC = type: cell-based, Escherichia coli; conditions: E. coli ATCC25922 ΔrfaC; CLSI; triplicates
From the text: as §3, §1
(§4) Construction of knock-out mutants of E. coli ATCC25922 were constructed using the λ-Red recombinase gene replacement system. Primers for amplification of the npt gene of pKD4 are listed in S1 Table. The correct double-crossover and recombination event was confirmed by primers listed in S1 Table and by sequencing. Finally, the kanamycin cassette was removed.

ATCC25922 ΔrfaE = type: cell-based, Escherichia coli; conditions: E. coli ATCC25922 ΔrfaE; CLSI; triplicates
From the text: as §3, §1, §4

ATCC25922 ΔrfaF = type: cell-based, Escherichia coli; conditions: E. coli ATCC25922 ΔrfaF; CLSI; triplicates
From the text: as §3, §1, §4

ATCC25922 ΔrfaG = type: cell-based, Escherichia coli; conditions: E. coli ATCC25922 ΔrfaG; CLSI; triplicates
From the text: as §3, §1, §4

E. coli ATCC25922 [2] = system: E. coli ATCC25922
Protocol: as §1, with “hours. […]” for “hours.”

T1 sequence (P06873 106-384): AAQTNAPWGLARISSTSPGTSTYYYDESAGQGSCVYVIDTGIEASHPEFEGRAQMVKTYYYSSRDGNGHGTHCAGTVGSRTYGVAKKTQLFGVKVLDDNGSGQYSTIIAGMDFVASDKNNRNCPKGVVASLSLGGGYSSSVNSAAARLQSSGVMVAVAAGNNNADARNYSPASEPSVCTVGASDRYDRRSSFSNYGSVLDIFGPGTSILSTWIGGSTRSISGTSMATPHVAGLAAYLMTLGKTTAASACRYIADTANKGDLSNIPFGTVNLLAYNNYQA

Compound | Antimicrobial Activity MIC (E. coli ATCC25922 [1]) | Antimicrobial Activity MIC (BW25113 wild-type) | Antimicrobial Activity MIC (BW25113 ΔrfaC) | Antimicrobial Activity MIC (BW25113 ΔrfaE) | Antimicrobial Activity MIC (BW25113 ΔrfaF) | Antimicrobial Activity MIC (BW25113 ΔrfaG) | Antimicrobial Activity MIC (ATCC25922 ΔrfaC) | Antimicrobial Activity MIC (ATCC25922 ΔrfaE) | Antimicrobial Activity MIC (ATCC25922 ΔrfaF) | Antimicrobial Activity MIC (ATCC25922 ΔrfaG) | Antimicrobial Activity MIC (E. coli ATCC25922 [2]) | further results
CNC(C)C1CCC(N)C(OC2C(N)CC(N)C(OC3OCC(C)(O)C(NC)C3O)C2O)O1 (stereo not drawn) [Gentamicin] |  |  |  |  |  |  |  |  |  |  |  | antimicrobial activity after protease (in words) (proteinase K; proteinase K for 30 minutes, control antibiotic): retained its full antimicrobial activity; Antimicrobial Activity MIC (proteinase K; 0 min): 1 µg/mL; Antimicrobial Activity MIC (proteinase K; 0.5 min, then 10 min 90°C): 1 µg/mL; Antimicrobial Activity MIC (proteinase K; 2 min, then 10 min 90°C): 1 µg/mL; Antimicrobial Activity MIC (proteinase K; 5 min, then 10 min 90°C): 1 µg/mL; Antimicrobial Activity MIC (proteinase K; 15 min, then 10 min 90°C): 1 µg/mL; Antimicrobial Activity MIC (proteinase K; 30 min, then 10 min 90°C): 1 µg/mL; antimicrobial activity after protease (in words) (trypsin; trypsin for 30 minutes, control antibiotic): retained its full antimicrobial activity; Antimicrobial Activity MIC (trypsin; 0 min): 1 µg/mL; Antimicrobial Activity MIC (trypsin; 0.5 min, then 10 min 90°C): 1 µg/mL; Antimicrobial Activity MIC (trypsin; 2 min, then 10 min 90°C): 1 µg/mL; Antimicrobial Activity MIC (trypsin; 5 min, then 10 min 90°C): 1 µg/mL; Antimicrobial Activity MIC (trypsin; 15 min, then 10 min 90°C): 1 µg/mL; Antimicrobial Activity MIC (trypsin; 30 min, then 10 min 90°C): 1 µg/mL
CC[C@H](C)[C@H](NC(=O)[C@H](CCCCN)NC(=O)[C@H](Cc1c[nH]c2ccccc12)NC(=O)[C@H](CCCNC(=N)N)NC(=O)[C@@H](N)CCCNC(=N)N)C(=O)N[C@H](C(=O)N[C@H](C(=O)N[C@H](C(=O)N[C@@H](CCCNC(=N)N)C(=O)N[C@@H](Cc1c[nH]c2ccccc12)C(=O)N[C@@H](CCCNC(=N)N)C(=O)N[C@@H](CCCNC(=N)N)C(N)=O)[C@@H](C)CC)C(C)C)C(C)C [Sub5-NH2] (H-RRWKIVVIRWRR-NH2) | 4 µg/mL | 4 to 8 µg/mL | 2 µg/mL | 2 µg/mL | 2 µg/mL | 2 µg/mL | 1 µg/mL | 1 µg/mL | 1 µg/mL | 1 µg/mL |  | 
CC[C@H](C)[C@H](NC(=O)[C@H](CC(C)C)NC(=O)[C@H](CCCCN)NC(=O)[C@H](CC(C)C)NC(=O)[C@H](CC(C)C)NC(=O)[C@H](CCCCN)NC(=O)[C@H](CCCNC(=N)N)NC(=O)[C@H](Cc1ccccc1)NC(=O)[C@H](CC(C)C)NC(=O)[C@H](CCCCN)NC(=O)[C@H](CCCNC(=N)N)NC(=O)[C@H](CC(C)C)NC(=O)[C@@H](N)CCCCN)C(=O)N[C@@H](CCCNC(=N)N)C(=O)N[C@@H](CCCCN)C(=O)N[C@@H](CC(C)C)C(=O)N[C@@H](CC(C)C)C(=O)N[C@@H](CCCNC(=N)N)C(=O)O [Cap11-1-18m^2] (H-KLRKLFRKLLKLIRKLLR-OH) | 32 µg/mL | 16 µg/mL | 8 µg/mL | 8 µg/mL | 8 µg/mL | 8 µg/mL | 16 µg/mL | 16 µg/mL | 16 µg/mL | 16 µg/mL | 32 µg/mL | 
GLRKKFRKTRKRIQKLGRKIGKTGRKVWKAWREYGQIPYPCRI [Cap11] | 16 µg/mL | 8 µg/mL | 8 µg/mL | 8 µg/mL | 8 µg/mL | 8 µg/mL | 4 µg/mL | 4 µg/mL | 4 µg/mL | 8 µg/mL | 8 µg/mL | 
CC[C@H](C)[C@H](NC(=O)CNC(=O)[C@H](CCC(=O)O)NC(=O)[C@H](CO)NC(=O)[C@@H](NC(=O)[C@H](CCCNC(=N)N)NC(=O)[C@H](CCCCN)NC(=O)[C@H](CCCCN)NC(=O)[C@H](C)NC(=O)[C@H](CO)NC(=O)[C@H](CC(N)=O)NC(=O)[C@H](CCC(=O)O)NC(=O)[C@H](CC(C)C)NC(=O)[C@H](CCCCN)NC(=O)[C@H](CCCCN)NC(=O)[C@H](C)NC(=O)[C@@H](NC(=O)[C@H](CCCCN)NC(=O)[C@H](CO)NC(=O)[C@H](CC(C)C)NC(=O)[C@H](Cc1c[nH]c2ccccc12)NC(=O)[C@@H](N)CO)[C@@H](C)O)[C@@H](C)CC)C(=O)N[C@@H](C)C(=O)N[C@H](C(=O)N[C@@H](C)C(=O)N[C@H](C(=O)N[C@@H](CCC(N)=O)C(=O)NCC(=O)NCC(=O)N1CCC[C@H]1C(=O)N[C@@H](CCCNC(=N)N)C(=O)O)[C@@H](C)CC)[C@@H](C)CC [Cecropin P1] (H-SWLSKTAKKLENSAKKRISEGIAIAIQGGPR-OH) | 32 µg/mL | 16 to 32 µg/mL | 8 µg/mL | 8 µg/mL | 4 µg/mL | 16 µg/mL | 8 µg/mL | 8 µg/mL | 8 µg/mL | 16 µg/mL | 16 µg/mL | 
